Data set [1] in a line: Hygroscopicity studies (DVS moisture sorption/desorption). It counts as physicochemical. The following applies: for mass change of the starting mass of the sample (moisture sorption): RH increased from about 0% to about 95% RH; for solid-state transformation as a result of DVS analysis (XRPD): after full adsorption/desorption cycle, about 0% to about 95% RH, about 25 °C. As for the experimental part:
Hygroscopicity studies. The hygroscopicity of various solid forms was studied using a Surface Measurement Systems DVS instrument. Typically a sample size of between about 10-50 mg was loaded into the DVS instrument sample pan and the sample was analyzed on a DVS automated sorption analyzer at about 25 °C. The relative humidity was increased in increments of about 10% from about 0% to about 95% RH: The relative humidity was then decreased in a similar manner to accomplish a full adsorption/desorption cycle. The mass was recorded at periodic intervals throughout the experiment.
Hygroscopicity Studies. […] Table 6. Solubility Study on Form B

Data set [2] in a line: Interconversion Studies of solid forms. It counts as physicochemical. The following applies: EQ in acetone:ethanol (1:1) at 25 °C; slurry agitated at least 2 days. The procedure:
Interconversion Studies. Interconversion experiments were performed by making slurries of a solid form in a saturated solvent. The slurries were agitated for at least 2 days at about 25 °C. The saturated solution was removed by filtration and the solid was dried in the air.

The nature of data set [3]: Compression Studies of solid forms. The following applies: 2000 psi force for at least one minute.
Data set [4] can be described thus: Stability Studies of solid forms. It counts as physicochemical. The procedure:
Stability Studies. The stabilities of Forms A, B, C and D were studied by exposing the solid samples to the stress condition of 40 °C / 75% RH for four weeks. Moreover, the stabilities of Forms A, B, C and D in different solvents were studied by equilibration in different solvents at 40 °C for four weeks. The slurries then were filtered and dried in the air. Solid samples obtained from the stability experiments were analyzed by XRPD and DSC.

Data set [5] can be described thus: Solubility Studies in solvents. In kind it is physicochemical. The conditions noted are these: 25 °C, thermodynamic from solid, about 25 °C, read-out: Approximate Solubility. The procedure: Solubility Studies. A weighed sample of Compound A (about 100 mg) was treated with about 2 mL of the test solvent. The solvents used were either reagent or HPLC grade. The resulting mixture was agitated for at least 24 hours at about 25 °C. When all of the solids were dissolved by visual inspection, the estimated solubilities were calculated. The solubilities were estimated from these experiments based on the total volume of solvent used to give a solution. The actual solubilities may be greater than those calculated due to the use of large amount of solvent or to a slow rate of dissolution. […] A known volume of filtrate was evaporated to dryness and the weight of the residue was measured.
Solubility Studies. […] Form B was also found to have low solubility in several solvents including n-butanol, heptane, 2-propanol, toluene and water (less than about 1 mg/mL).

[6] abbreviates: EQ in ethanol at 40 °C for 4 weeks.
Setting [7] is: EQ in heptane at 40 °C for 4 weeks.
[8] abbreviates: EQ in toluene at 40 °C for 4 weeks.
The mark [9] stands for this setting: EQ in water at 40 °C for 4 weeks.

Each structure is given as a SMILES string. Values after ≈ are worked out from the molar mass of the structure shown. Read-outs that look alike come from different tables or passages of the source.

With `CCOc1cc(C(CS(C)(=O)=O)N2C(=O)c3cccc(NC(C)=O)c3C2=O)ccc1OC` (single isomer, unassigned; (+)) [Form A, (+)-2-[1-(3-ethoxy-4-methoxyphenyl)-2-methylsulfonylethyl]-4-acetylaminoisoindoline-1,3-dione], the “mass change of the starting mass of the sample (moisture sorption)” value (“mass change” for short) in data set [1] is reported as “about 0.4%”. For the same compound, the “solid-state transformation as a result of DVS analysis (XRPD)” value (from here on “solid-state transformation as a result”) in data set [1] is recorded as “none of the forms analyzed underwent substantial solid-state transformation”. Moreover, the “Analysis by XRPD (resulting form)” value in data set [2] is “Form B”; in data set [4] (40 °C / 75% RH, 4 weeks), “Form A”; in data set [4] (setting [6]), “Form F”; in data set [4] (setting [7]), “Form A”; in data set [4] (setting [8]) it was “Form C”; in data set [4] (setting [9]) it was “Form A”. Further, in data set [3], the “physical stability upon compression by XRPD analysis” value (“physical stability upon compression” for short) is reported as “substantially physically stable”. Besides, in data set [4] (40 °C / 75% RH, 4 weeks), the Appearance entry is listed as “White solid”.

The solubility is the concentration that dissolves in the medium under given conditions. For `CCOc1cc(C(CS(C)(=O)=O)N2C(=O)c3cccc(NC(C)=O)c3C2=O)ccc1OC` (single isomer, unassigned; (+)) [Form B, (+)-2-[1-(3-ethoxy-4-methoxyphenyl)-2-methylsulfonylethyl]-4-acetylaminoisoindoline-1,3-dione], the “mass change” value in data set [1] is “about 0.6%”. The “solid-state transformation as a result” value in data set [1] was “none of the forms analyzed underwent substantial solid-state transformation”. Besides, the “physical stability upon compression” value in data set [3] was “substantially physically stable”. For the same compound, the “Analysis by XRPD (resulting form)” value in data set [4] (40 °C / 75% RH, 4 weeks) is listed as “Form B”; in data set [4] (setting [6]) it was “Form B”; in data set [4] (setting [7]) it was “Form B”; in data set [4] (setting [8]), “Form B”; in data set [4] (setting [9]) it was “Form B”. Further, in data set [4] (40 °C / 75% RH, 4 weeks), the Appearance entry was “White solid”. Besides, the solubility in data set [5] (2-propanol, organic solvent or mixture, 2-Propanol) is below 1000 µg/mL; in data set [5] (absolute ethanol, organic solvent or mixture, Absolute ethanol) it was 1380 µg/mL (≈ 3 mM); in data set [5] (acetone, organic solvent or mixture, Acetone), above 50000 µg/mL; in data set [5] (acetonitrile, organic solvent or mixture, Acetonitrile) it was above 50000 µg/mL; in data set [5] (ethanol:water (1:1), aqueous with cosolvent or surfactant or cyclodextrin, Ethanol: Water (1:1)) it was 2860 µg/mL (≈ 6.21 mM); in data set [5] (ethyl acetate, organic solvent or mixture, Ethyl acetate), around 30200 µg/mL (≈ 65.5 mM). The solubility was 4050 µg/mL (≈ 8.79 mM) in data set [5] (methanol, organic solvent or mixture, Methanol); above 50000 µg/mL in data set [5] (methyl ethyl ketone, organic solvent or mixture, Methyl ethyl ketone); 1170 µg/mL (≈ 2.54 mM) in data set [5] (methyl t-butyl ether, organic solvent or mixture, Methyl t-butyl ether); above 50000 µg/mL in data set [5] (methylene chloride, organic solvent or mixture, Methylene chloride); below 1000 µg/mL in data set [5] (n-butanol, organic solvent or mixture, n-Butanol); 9750 µg/mL (≈ 21.2 mM) in data set [5] (n-butyl acetate, organic solvent or mixture, n-Butyl acetate). Moreover, the solubility was above 50000 µg/mL in data set [5] (tetrahydrofuran, organic solvent or mixture, Tetrahydrofuran); below 1000 µg/mL in data set [5] (toluene, organic solvent or mixture, Toluene); below 1000 µg/mL in data set [5] (water, water, Water).

Turning to `CCOc1cc(C(CS(C)(=O)=O)N2C(=O)c3cccc(NC(C)=O)c3C2=O)ccc1OC` (single isomer, unassigned; (+)) [Form C, (+)-2-[1-(3-ethoxy-4-methoxyphenyl)-2-methylsulfonylethyl]-4-acetylaminoisoindoline-1,3-dione], the “mass change” value in data set [1] is on record as “about 0.5%”. Moreover, the “solid-state transformation as a result” value in data set [1] is “none of the forms analyzed underwent substantial solid-state transformation”. The “Analysis by XRPD (resulting form)” value was “Form C” in data set [2]; “Form C” in data set [4] (40 °C / 75% RH, 4 weeks); “Form C” in data set [4] (setting [6]); “Form C” in data set [4] (setting [7]); “Form C” in data set [4] (setting [8]); “Form C” in data set [4] (setting [9]). Also, the “physical stability upon compression” value in data set [3] is reported as “substantially physically stable”. Further, the Appearance result in data set [4] (40 °C / 75% RH, 4 weeks) is listed as “Yellow solid”.

`CCOc1cc(C(CS(C)(=O)=O)N2C(=O)c3cccc(NC(C)=O)c3C2=O)ccc1OC` (single isomer, unassigned; (+)) [Form D, (+)-2-[1-(3-ethoxy-4-methoxyphenyl)-2-methylsulfonylethyl]-4-acetylaminoisoindoline-1,3-dione]: the “mass change” value in data set [1] is given as “about 1.5%”. In addition, the “solid-state transformation as a result” value in data set [1] is on record as “none of the forms analyzed underwent substantial solid-state transformation”. For the same compound, the “Analysis by XRPD (resulting form)” value in data set [2] was “Form B”; in data set [4] (40 °C / 75% RH, 4 weeks), “Form D”; in data set [4] (setting [6]) it was “Form B”; in data set [4] (setting [7]), “Form B”; in data set [4] (setting [8]), “Form C”; in data set [4] (setting [9]), “Form B”. Also, the “physical stability upon compression” value in data set [3] is reported as “substantially physically stable”. In addition, in data set [4] (40 °C / 75% RH, 4 weeks), the Appearance entry was “White solid”.

Take `CCOc1cc(C(CS(C)(=O)=O)N2C(=O)c3cccc(NC(C)=O)c3C2=O)ccc1OC` (single isomer, unassigned; (+)) [Form E, (+)-2-[1-(3-ethoxy-4-methoxyphenyl)-2-methylsulfonylethyl]-4-acetylaminoisoindoline-1,3-dione]: in data set [1], the “mass change” value is on record as “about 5.1%” and the “solid-state transformation as a result” value is listed as “none of the forms analyzed underwent substantial solid-state transformation”. Besides, the “Analysis by XRPD (resulting form)” value in data set [2] is listed as “Form B”.

For the compound `CCOc1cc(C(CS(C)(=O)=O)N2C(=O)c3cccc(NC(C)=O)c3C2=O)ccc1OC` (single isomer, unassigned; (+)) [Form F, (+)-2-[1-(3-ethoxy-4-methoxyphenyl)-2-methylsulfonylethyl]-4-acetylaminoisoindoline-1,3-dione], in data set [1], the “mass change” value is on record as “about 0.2%” and the “solid-state transformation as a result” value was “none of the forms analyzed underwent substantial solid-state transformation”. Also, in data set [2], the “Analysis by XRPD (resulting form)” value is “Form F”.

As for `CCOc1cc(C(CS(C)(=O)=O)N2C(=O)c3cccc(NC(C)=O)c3C2=O)ccc1OC` (single isomer, unassigned; (+)) [Form G, (+)-2-[1-(3-ethoxy-4-methoxyphenyl)-2-methylsulfonylethyl]-4-acetylaminoisoindoline-1,3-dione], in data set [1], the “mass change” value was “about 0.4%” and the “solid-state transformation as a result” value is on record as “none of the forms analyzed underwent substantial solid-state transformation”. For the same compound, the “Analysis by XRPD (resulting form)” value in data set [2] is given as “Form B”.
